# Results reported in US9744142B2, “Formulations of volatile anesthetics and methods of use for reducing inflammation” (Board of Regents, The University of Texas Systems, priority 2009, dated 2017).
# Assay: Isoflurane remaining in uncapped vials over time, determined by weighing (volatility)
# Format: physicochemical
# Settings: uncapped vial
# Experimental: In the Examples that follow, the stability of isoflurane in the described compositions was determined in two ways. First, the compositions were examined for the presence of phase separation at the macroscopic level. Secondly, isoflurane content of the compositions was determined by weighing the remaining isoflurane in the composition when they were left uncapped over time. Briefly, glass vials were filled with 5-10 ml of the composition vehicle and then weighed; one of them received only vehicle (i.e., no isoflurane) and served as control. The other vials received varying amounts of isoflurane. They were left uncapped in the hood. Over time, the vials were weighed to see if the isoflurane stayed in the composition or had evaporated. The amount evaporated over time in the vehicle control was subtracted from that in the isoflurane-containing composition.
# The pure form of isoflurane is a volatile anesthetic. In order to assess the volatility of isoflurane, two vials received the indicated amounts of pure form isoflurane. The vials were placed in the chemical fume hood and left uncapped. The vials were weighed at the indicated times to determine the amount of evaporated isoflurane. As it is shown in the table below 0.7893 g isoflurane was evaporated within 3 hours, while 3.4825 g isoflurane took approximately 8 hrs to evaporate completely. These amounts of isoflurane are similar to the amounts of isoflurane that were used to prepare the isoflurane compositions in the Examples that follow.
smiles,measurement,setting,value
FC(F)OC(Cl)C(F)(F)F (stereo not shown) [isoflurane],time until isoflurane was evaporated,pure isoflurane 0.7893 g,≤ 3 h
same,time to evaporate completely,pure isoflurane 3.4825 g,approximately 8 hrs
same,7 h,"pure isoflurane 3.4825 g, 7 h, remaining iso as in the neighbouring columns",13
same,8 h,"pure isoflurane 3.4825 g, 8 h, remaining iso as in the neighbouring columns",3
